Tests used:
[1] = biological target: C-C chemokine receptor type 5 (Homo sapiens, UniProt P51681); assay: Antagonist activity at CCR5 (unknown origin) expressed in HEK293 cells co-expressing Galpha16 assessed as inhibition of RANTES-induced calcium flux preincubated for 10 mins followed by RANTES addition by fluo-4AM-based fluorescence assay; assay type: functional, cell-based
[2] = system: Human immunodeficiency virus 1; assay: microbe, parasite or virus in culture; details: Human immunodeficiency virus 1, SF162, TZM-bl, 48 h
Description: Antiviral activity against CCR5-dependent HIV1 SF162 infected in human TZM-bl cells assessed as reduction in virus infection measured after 48 hrs post infection by luciferase reporter gene assay

[3] = in vitro; details: human, TZM-bl cells
Description: Therapeutic index, ratio of CC50 for human TZM-bl cells to EC50 for CCR5-dependent HIV1 SF162 infected in human TZM-bl cells

[4] = Cytotoxicity against human TZM-bl cells after 48 hrs by MTT assay; assay type: cell-based

C-C chemokine receptor type 5, sequence (P51681 whole entry): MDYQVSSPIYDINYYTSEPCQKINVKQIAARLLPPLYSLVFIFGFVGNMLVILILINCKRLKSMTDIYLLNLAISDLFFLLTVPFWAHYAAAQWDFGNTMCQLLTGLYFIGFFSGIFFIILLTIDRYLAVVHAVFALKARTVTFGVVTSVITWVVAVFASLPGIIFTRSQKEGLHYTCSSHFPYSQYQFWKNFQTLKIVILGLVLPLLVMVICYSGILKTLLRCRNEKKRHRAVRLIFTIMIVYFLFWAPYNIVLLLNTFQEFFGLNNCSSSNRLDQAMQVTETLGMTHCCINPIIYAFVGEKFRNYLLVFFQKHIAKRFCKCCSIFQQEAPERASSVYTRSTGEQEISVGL

Structure (SMILES): Cc1csc([C@H](CCN2[C@@H]3CC[C@H]2C[C@H](n2c(C)nnc2C(C)C)C3)NC(=O)C2CCC(F)(F)CC2)c1
- IC50 [1]: 6.8 nM

Structure (SMILES): Cc1nnc(C(C)C)n1[C@@H]1C[C@H]2CC[C@@H](C1)N2CC[C@H](NC(=O)C1CCC(F)CC1)c1cccs1 (some centres undefined)
- IC50 [1]: 3 nM

Structure (SMILES): Cc1nnc(C(C)C)n1[C@@H]1C[C@H]2CC[C@@H](C1)N2CC[C@H](NC(=O)C1CC(=O)N(C)C1)c1cccs1 (some centres undefined)
- IC50 [1]: 5.2 nM

Structure (SMILES): Cc1nnc(C(C)C)n1[C@@H]1C[C@H]2CC[C@@H](C1)N2CC[C@H](NC(=O)C1CCC(F)(F)CC1)c1csc2ccccc12
- IC50 [2]: 810 nM
- selectivity ratio [3]: 119
- CC50 at 48 h [4]: 96100 nM
- IC50 [1]: 9.7 nM

Structure (SMILES): O=C(N[C@@H](CCN1[C@@H]2CC[C@H]1C[C@H](n1c(C3CC3)nnc1C(F)(F)F)C2)c1ccsc1)C1CCC(F)(F)CC1
- IC50 [1]: 2.9 nM

Structure (SMILES): CC(C)c1nnc(C(F)(F)F)n1[C@@H]1C[C@H]2CC[C@@H](C1)N2CC[C@H](NC(=O)C1CCC(F)(F)CC1)c1cccs1
- IC50 [1]: 4.7 nM

Structure (SMILES): CCc1nnc(C)n1[C@@H]1C[C@H]2CC[C@@H](C1)N2CC[C@H](NC(=O)C1CCC(F)(F)CC1)c1ccsc1
- IC50 [1]: 2.8 nM

Structure (SMILES): Cc1nnc(C(C)C)n1[C@@H]1C[C@H]2CC[C@@H](C1)N2CC[C@H](NC(=O)C1CCC(F)(F)CC1)c1cscn1
- IC50 [1]: 27.1 nM

Structure (SMILES): Cc1nnc(C(C)C)n1[C@@H]1C[C@H]2CC[C@@H](C1)N2CC[C@H](NC(=O)C1CCC(F)(F)CC1)c1ccc(F)s1
- IC50 [2]: 520 nM
- selectivity ratio [3]: > 385
- CC50 at 48 h [4]: > 200000 nM
- IC50 [1]: 15.8 nM

Structure (SMILES): Cc1cscc1[C@H](CCN1[C@@H]2CC[C@H]1C[C@H](n1c(C)nnc1C(C)C)C2)NC(=O)C1CCC(F)(F)CC1
- IC50 [1]: 8.1 nM

Structure (SMILES): Cc1nnc(C(C)C)n1[C@@H]1C[C@H]2CC[C@@H](C1)N2CC[C@H](NC(=O)C(C)(C)C(F)(F)F)c1cccs1
- IC50 [1]: 5.4 nM

Structure (SMILES): Cc1nnc(C(C)C)n1[C@@H]1C[C@H]2CC[C@@H](C1)N2CC[C@H](NC(=O)C1CCC(=O)C1)c1cccs1 (some centres undefined)
- IC50 [1]: 2.9 nM

Structure (SMILES): Cc1ccc([C@H](CCN2[C@@H]3CC[C@H]2C[C@H](n2c(C)nnc2C(C)C)C3)NC(=O)C2CCCC2)s1
- IC50 [1]: 2.6 nM

Structure (SMILES): Cc1nnc(C2CC2)n1[C@@H]1C[C@H]2CC[C@@H](C1)N2CC[C@H](NC(=O)C1CCC(F)(F)CC1)c1ccsc1
- IC50 [1]: 2.6 nM

Structure (SMILES): Cc1ccc([C@H](CCN2[C@@H]3CC[C@H]2C[C@H](n2c(C)nnc2C(C)C)C3)NC(=O)c2ccccc2)s1
- IC50 [1]: 51.7 nM

Structure (SMILES): Cc1nnc(C(C)C)n1[C@@H]1C[C@H]2CC[C@@H](C1)N2CC[C@H](NC(=O)C1CCC(F)(F)CC1)c1ccc(Cl)s1
- IC50 [1]: 12 nM

Structure (SMILES): Cc1nnc(C(C)C)n1[C@@H]1C[C@H]2CC[C@@H](C1)N2CC[C@H](NC(=O)C1CCC(F)(F)CC1)c1ccc(F)nc1
- IC50 [1]: 252 nM

Structure (SMILES): Cc1nnc(C2CC2)n1[C@@H]1C[C@H]2CC[C@@H](C1)N2CC[C@H](NC(=O)C1CCC(F)(F)CC1)c1cccs1
- IC50 [1]: 2.9 nM

Structure (SMILES): Cc1nnc(C(C)C)n1[C@@H]1C[C@H]2CC[C@@H](C1)N2CC[C@H](NC(=O)C1CCC(F)(F)C1)c1cccs1 (some centres undefined)
- IC50 [1]: 2.3 nM

Structure (SMILES): Cc1nnc(C(C)C)n1[C@@H]1C[C@H]2CC[C@@H](C1)N2CC[C@H](NC(=O)[C@@H]1CCC(=O)N1)c1cccs1
- IC50 [1]: 20.6 nM

Structure (SMILES): Cc1nnc(C(C)C)n1[C@@H]1C[C@H]2CC[C@@H](C1)N2CC[C@H](NC(=O)C1CC(F)(F)C1)c1cccs1
- IC50 [1]: 2.6 nM

Structure (SMILES): Cc1nnc(C(C)C)n1[C@@H]1C[C@H]2CC[C@@H](C1)N2CC[C@H](NC(=O)C1CCC(F)(F)CC1)c1cccnc1
- IC50 [2]: 1520 nM
- selectivity ratio [3]: > 65.8
- CC50 at 48 h [4]: > 100000 nM
- IC50 [1]: 82.6 nM

Structure (SMILES): Cc1ccc([C@H](CCN2[C@@H]3CC[C@H]2C[C@H](n2c(C)nnc2C(C)C)C3)NC(=O)Cc2ccc(F)cc2)s1
- IC50 [1]: 33 nM

Structure (SMILES): COc1ccc([C@H](CCN2[C@@H]3CC[C@H]2C[C@H](n2c(C)nnc2C(C)C)C3)NC(=O)C2CCC(F)(F)CC2)s1
- IC50 [1]: 6.8 nM

Structure (SMILES): Cc1ccc([C@H](CCN2[C@@H]3CC[C@H]2C[C@H](n2c(C(C)C)nnc2C(F)(F)F)C3)NC(=O)C2CCC(F)(F)CC2)s1
- IC50 [1]: 4 nM

From ChEMBL document CHEMBL4229569, “Structure-Based Design of 1-Heteroaryl-1,3-propanediamine Derivatives as a Novel Series of CC-Chemokine Receptor 5 Antagonists” (J Med Chem, 2018)
